# Several values for one entry are separate records, joined by “and”; a condition that tells them apart may be missing. Equal values may be shown once.
# Legend:
# [1] = MTT cytotoxicity assay, 72 h; type: cell-based, Human; details: human, HepG2 cells; MTT, 72 h, N = 3
# Procedure: (§1) Human hepatoma (HepG2) and fibroblast-like monkey kidney cells (COS-7) were cultured in Dulbecco’s Modified Eagle Medium supplemented with 10% heat-inactivated fetal bovine serum and gentamycin (40 mg/L) at 37°C in a 5% CO2 atmosphere. Cytotoxicity of test compounds was measured by metabolic reduction of mitochondrial enzymes using the MTT assay (3-[4,5-dimethyl-thiazol-2-yl]-2,5-diphenyltetrazolium chloride). Cells were seeded at 10^5 cells/well in 96-well plates and incubated for 72 hours in the presence of a 2-fold 12-point serial dilution of drugs along with drug-free controls. After adding 15 μL of MTT (5 mg/mL) to the wells, plates were centrifuged at 317g for 5 minutes and the pellet was resuspended in isopropanol. Absorbance was measured at 570 nm (CLARIOStar, Labtech BMG). Cell viability was determined by formazan production, and was expressed as a percentage of untreated control wells.
# [2] = test system: HepG2 cells; experiment: MTT cytotoxicity assay, 72 h; type: cell-based, Human
# Procedure: as §1
# [3] = test system: Hz formation in ABS P. falciparum 3D7 parasites; experiment: Cellular heme fractionation assay; type: cell-based, Plasmodium falciparum
# Procedure: A heme fractionation assay was used to measure the inhibition of Hz formation in cultured ABS P. falciparum 3D7 parasites as previously described. […] Late trophozoites were harvested after 32 hours of incubation by lysing RBCs with 0.05% saponin followed by multiple washes with 1 × PBS (pH 7.5) to remove any residual traces of hemoglobin. The parasite pellet was resuspended in PBS and the total number of trophozoites isolated was quantified using flow cytometry. Contents of the trophozoite pellet were released by hypotonic lysis and sonication. After centrifugation, treatments with HEPES buffer (pH 7.4), sodium dodecyl sulfate, pyridine, and NaOH, allowed us to separate the fractions corresponding to the different heme species of interest. A microplate reader was employed to measure the UV-visible spectrum of each heme fraction as a Fe(III)heme-pyridine complex. Fractions of undigested hemoglobin, “free” heme, and Hz were quantified using a heme standard curve based on the mass of each heme-Fe species per mature trophozoite (fg/cell), obtained by dividing the total amount of each heme species by the corresponding number of parasites in that fraction as determined by flow cytometry. Statistical comparisons and analyses for trends employed Students’ t-tests (GraphPad Prism version 9).
# [4] = test system: P. berghei ookinete formation; experiment: In vitro inhibition of ookinete formation (nLuc conversion assay), 24 h; type: cell-based, Plasmodium berghei; details: for % Inhibition of ookinete conversion: single assays
# Procedure: To measure the inhibition of gamete conversion into ookinetes, a mutant luciferase-expressing P. berghei line (nLuc) was intraperitoneally injected into BALB/c mice. After 3–4 days, gametocyte-carrying blood samples were collected. In vitro compound testing was carried out by exposing 4 μL of infected blood mixed with 80 μL of culture medium (RPMI-1640 supplemented with 25 mM HEPES, 50 mg/L hypoxanthine, and 1% penicillin/streptomycin/neomycin at pH 8.3) to a range of drug concentrations for 24 hours at 21°C. Following the incubation, 20 μL of nLuc substrate (Nano-Glo Luciferase Assay System, Promega) was added to each well, and luminescence was measured in a luminometer. Increased light emission correlated with nLuc production and subsequent luciferase activity due to in vitro fertilization and ookinete conversion, as luciferase expression in this parasite line is regulated by the CTRP promoter that is ookinete-specific. Conversion inhibition was calculated as the percentage of luciferase activity of drug-exposed wells relative to untreated ones, from which IC50 values were interpolated.
# [5] = 0.5x IC50, 32 h, single replicates
# [6] = 0.5–3.0 × IC50 vs untreated control
# [7] = 1x IC50, 32 h, single replicates
# [8] = 2x IC50, 32 h, single replicates
# [9] = 2.5x IC50, 32 h, single replicates
# [10] = 3x IC50, 32 h, single replicates
structure (smiles),measurement,setting,value
COc1cc2nccc(Nc3cccc(Oc4ccccc4)c3)c2cc1OC [LDT-623],CC50 at 72 h,[1],1.3 ± 0.1 µM
same,SI (CC50 HepG2 / IC50 3D7),[2],10
same,%Hb,"[3]; 0.5x IC50, 32 h, Mean",6.49%
same,%Heme,"[3]; 0.5x IC50, 32 h, Mean",9.94%
same,%Hemozoin,"[3]; 0.5x IC50, 32 h, Mean",83.57%
same,Hb Fe (fg/troph),"[3]; 0.5x IC50, 32 h, Mean",3.40 fg/troph
same,Heme Fe (fg/troph),"[3]; 0.5x IC50, 32 h, Mean",5.28 fg/troph
same,Hemozoin Fe (fg/troph),"[3]; 0.5x IC50, 32 h, Mean",44.40 fg/troph
same,Total Fe (fg/troph),"[3]; 0.5x IC50, 32 h, Mean",54.33 fg/troph
same,%Hb,[3]; [5],5.0225% and 6.9078% and 7.3751% and 6.6526%
same,%Heme,[3]; [5],10.3876% and 10.3966% and 9.0005% and 9.9788%
same,%Hemozoin,[3]; [5],84.5899% and 82.6957% and 83.6245% and 83.3686%
same,Hb Fe (fg/troph),[3]; [5],2.7844 fg/troph and 3.6098 fg/troph and 3.8007 fg/troph and 3.8647 fg/troph
same,Heme Fe (fg/troph),[3]; [5],5.7588 fg/troph and 5.4329 fg/troph and 4.6383 fg/troph and 5.7970 fg/troph
same,Hemozoin Fe (fg/troph),[3]; [5],46.8963 fg/troph and 43.2142 fg/troph and 43.0950 fg/troph and 48.4315 fg/troph
same,Total Fe (fg/troph),[3]; [5],55.44 fg/troph and 52.26 fg/troph and 51.53 fg/troph and 58.09 fg/troph
same,effect on Hz levels,[3]; [6],significant concentration-dependent decreases in the levels of Hz
same,effect on undigested Hb,[3]; [6],augmented percentage of undigested Hb was observed starting at 0.5 × IC50
same,effect on “free” heme,[3]; [6],statistically significant increase in “free” heme in a concentration-dependent manner
same,%Hb,"[3]; 1x IC50, 32 h, Mean",7.02%
same,%Heme,"[3]; 1x IC50, 32 h, Mean",10.55%
same,%Hemozoin,"[3]; 1x IC50, 32 h, Mean",82.43%
same,Hb Fe (fg/troph),"[3]; 1x IC50, 32 h, Mean",3.49 fg/troph
same,Heme Fe (fg/troph),"[3]; 1x IC50, 32 h, Mean",5.57 fg/troph
same,Hemozoin Fe (fg/troph),"[3]; 1x IC50, 32 h, Mean",44.22 fg/troph
same,Total Fe (fg/troph),"[3]; 1x IC50, 32 h, Mean",54.30 fg/troph
same,%Hb,[3]; [7],4.1032% and 6.0183% and 9.3168% and 8.6327%
same,%Heme,[3]; [7],11.3186% and 11.3158% and 8.7646% and 10.7959%
same,%Hemozoin,[3]; [7],84.5783% and 82.6659% and 81.9186% and 80.5714%
same,Hb Fe (fg/troph),[3]; [7],2.0348 fg/troph and 3.3626 fg/troph and 5.0638 fg/troph and 4.9539 fg/troph
same,Heme Fe (fg/troph),[3]; [7],5.6130 fg/troph and 6.3225 fg/troph and 4.7637 fg/troph and 6.1953 fg/troph
same,Hemozoin Fe (fg/troph),[3]; [7],41.9435 fg/troph and 46.1884 fg/troph and 44.5239 fg/troph and 46.2360 fg/troph
same,Total Fe (fg/troph),[3]; [7],49.59 fg/troph and 55.87 fg/troph and 54.35 fg/troph and 57.39 fg/troph
same,%Hb,"[3]; 2x IC50, 32 h, Mean",5.86%
same,%Heme,"[3]; 2x IC50, 32 h, Mean",12.64%
same,%Hemozoin,"[3]; 2x IC50, 32 h, Mean",81.50%
same,Hb Fe (fg/troph),"[3]; 2x IC50, 32 h, Mean",3.50 fg/troph
same,Heme Fe (fg/troph),"[3]; 2x IC50, 32 h, Mean",6.66 fg/troph
same,Hemozoin Fe (fg/troph),"[3]; 2x IC50, 32 h, Mean",43.79 fg/troph
same,Total Fe (fg/troph),"[3]; 2x IC50, 32 h, Mean",54.83 fg/troph
same,%Hb,[3]; [8],4.9454% and 8.0340% and 6.4023% and 4.0696%
same,%Heme,[3]; [8],13.6029% and 11.9660% and 11.4824% and 13.5021%
same,%Hemozoin,[3]; [8],81.4516% and 80.0000% and 82.1153% and 82.4284%
same,Hb Fe (fg/troph),[3]; [8],2.6441 fg/troph and 4.5716 fg/troph and 3.2970 fg/troph and 2.3379 fg/troph
same,Heme Fe (fg/troph),[3]; [8],7.2727 fg/troph and 6.8090 fg/troph and 5.9132 fg/troph and 7.7566 fg/troph
same,Hemozoin Fe (fg/troph),[3]; [8],43.5476 fg/troph and 45.5226 fg/troph and 42.2872 fg/troph and 47.3530 fg/troph
same,Total Fe (fg/troph),[3]; [8],53.46 fg/troph and 56.90 fg/troph and 51.50 fg/troph and 57.45 fg/troph
same,%Hb,"[3]; 2.5x IC50, 32 h, Mean",6.89%
same,%Heme,"[3]; 2.5x IC50, 32 h, Mean",13.61%
same,%Hemozoin,"[3]; 2.5x IC50, 32 h, Mean",79.50%
same,Hb Fe (fg/troph),"[3]; 2.5x IC50, 32 h, Mean",3.48 fg/troph
same,Heme Fe (fg/troph),"[3]; 2.5x IC50, 32 h, Mean",7.40 fg/troph
same,Hemozoin Fe (fg/troph),"[3]; 2.5x IC50, 32 h, Mean",43.37 fg/troph
same,Total Fe (fg/troph),"[3]; 2.5x IC50, 32 h, Mean",54.23 fg/troph
same,%Hb,[3]; [9],6.2660% and 6.4635% and 6.5388% and 8.2899%
same,%Heme,[3]; [9],15.0745% and 13.6837% and 12.1024% and 13.5701%
same,%Hemozoin,[3]; [9],78.6596% and 79.8529% and 81.3587% and 78.1400%
same,Hb Fe (fg/troph),[3]; [9],3.4040 fg/troph and 3.6534 fg/troph and 3.3950 fg/troph and 4.4889 fg/troph
same,Heme Fe (fg/troph),[3]; [9],8.1894 fg/troph and 7.7345 fg/troph and 6.2837 fg/troph and 7.3481 fg/troph
same,Hemozoin Fe (fg/troph),[3]; [9],42.7326 fg/troph and 45.1360 fg/troph and 42.2421 fg/troph and 42.3122 fg/troph
same,Total Fe (fg/troph),[3]; [9],54.33 fg/troph and 56.52 fg/troph and 51.92 fg/troph and 54.15 fg/troph
same,%Hb,"[3]; 3x IC50, 32 h, Mean",8.06%
same,%Heme,"[3]; 3x IC50, 32 h, Mean",18.59%
same,%Hemozoin,"[3]; 3x IC50, 32 h, Mean",73.35%
same,Hb Fe (fg/troph),"[3]; 3x IC50, 32 h, Mean",4.13 fg/troph
same,Heme Fe (fg/troph),"[3]; 3x IC50, 32 h, Mean",9.47 fg/troph
same,Hemozoin Fe (fg/troph),"[3]; 3x IC50, 32 h, Mean",38.59 fg/troph
same,Total Fe (fg/troph),"[3]; 3x IC50, 32 h, Mean",52.57 fg/troph
same,%Hb,[3]; [10],7.5148% and 8.7626% and 7.4537% and 8.4952%
same,%Heme,[3]; [10],20.9692% and 17.6208% and 15.9272% and 19.8532%
same,%Hemozoin,[3]; [10],71.5161% and 73.6166% and 76.6190% and 71.6515%
same,Hb Fe (fg/troph),[3]; [10],3.8296 fg/troph and 4.6352 fg/troph and 3.9291 fg/troph and 4.5643 fg/troph
same,Heme Fe (fg/troph),[3]; [10],10.6861 fg/troph and 9.3209 fg/troph and 8.3957 fg/troph and 10.6667 fg/troph
same,Hemozoin Fe (fg/troph),[3]; [10],36.4452 fg/troph and 38.9409 fg/troph and 40.3879 fg/troph and 38.4969 fg/troph
same,Total Fe (fg/troph),[3]; [10],50.96 fg/troph and 52.90 fg/troph and 52.71 fg/troph and 53.73 fg/troph
same,% Inhibition of ookinete conversion,[4]; Log conc. (uM) 0.39794,72.78% and 76.99% and 75.53% and 88.24% and 87.02% and 67.23% and 81.09%
same,% Inhibition of ookinete conversion,[4]; Log conc. (uM) 0.69897,88.00% and 95.67% and 86.70% and 98.41% and 98.02% and 73.84% and 94.25%
same,% Inhibition of ookinete conversion,[4]; Log conc. (uM) 1,99.93% and 99.92% and 99.83% and 99.70% and 99.35% and 98.41% and 99.32%
same,% Inhibition of ookinete conversion,[4]; Log conc. (uM) -1.70927,0.00%
same,IC50,"[4]; Plasmodium berghei, read-out: IC50 inhibition of ookinete formation, mean, N = 7",1.5 µM

# From publication PMC11521309, “A novel 4-aminoquinoline chemotype with multistage antimalarial activity and lack of cross-resistance with PfCRT and PfMDR1 mutants” (PLOS Pathogens, 2024)
